According to patent US20030072824A1, “Ume extract having medicinal effects and compositions containing the same” (priority 1998, published 2003):

Assay: Anti-oxidation action, DPPH radical trapping (Example 2)
Conditions: absorbance at 517 nm reduced to half, 30 minutes
Procedure: An ethanol solution of a stable radical 1,1-diphenyl-2-picryl-hydrazyl (DPPH) has an absorption at 517 nm in blue. When a radical trapping substance is added to this solution, the solution is discolored depending on the amount of the trapping substance added. This phenomenon was utilized in this method. First, 1 ml of ethanol, 1 ml of an ethanol solution of the extract (concentration: 0 to 100 μg/ml), 2 ml of 0.2 M acetic acid buffer solution (pH 5.5) and 1 ml of DPPH solution (2.0×10^−7 mol/ml ethanol solution) were mixed, and the mixture was allowed to stand for 30 minutes. Then, the absorbance of this mixed solution was determined at 517 nm. On the other hand, a mixture solution substituting 1 ml of ethanol for the DPPH solution was used as a blank, and the absorbance of this mixture solution was determined at 517 nm in the same manner as the above. Then, the amount of the extract required to reduce the absorbance to half was calculated, and this was used as an indicator of anti-oxidation. As comparative examples, α-tocopherol and green tea were used in place of the extract, and the anti-oxidation power thereof was investigated.

Structure (SMILES): Cc1c(C)c2c(c(C)c1O)CC[C@@](C)(CCC[C@H](C)CCC[C@H](C)CCCC(C)C)O2 [α-tocopherol]
- Anti-oxidation power: the amount required to trap 1.0 × 10^−7 mol DPPH: 21 μg
